# Tests used:
# Assay in all cases: cells
# RS4-11 = type: functional, cell-based, Homo sapiens; conditions: Homo sapiens, RS4-11;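 also: growth inhibition of RS4-11 cells, read out by a cell viability assay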
# Description: SANGER: Inhibition of human RS4-11 cell growth in a cell viability assay.
# NCI-H747 = type: functional, cell-based, Homo sapiens; conditions: Homo sapiens, NCI-H747;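 also: growth inhibition of human NCI-H747 cells, read out by a cell viability assay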
# Description: SANGER: Inhibition of human NCI-H747 cell growth in a cell viability assay.
# OS-RC-2 = type: functional, cell-based, Homo sapiens; conditions: Homo sapiens, OS-RC-2;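 also: growth inhibition of human OS-RC-2 cells, measured by a cell viability assay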
# Description: SANGER: Inhibition of human OS-RC-2 cell growth in a cell viability assay.
# KARPAS-45 = type: functional, cell-based, Homo sapiens; conditions: Homo sapiens, KARPAS-45;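 also: inhibition of cell line growth, read out through a viability assay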
# Description: SANGER: Inhibition of human KARPAS-45 cell growth in a cell viability assay.
# BT-474 = type: functional, cell-based, Homo sapiens; conditions: Homo sapiens, BT-474
# Description: SANGER: Inhibition of human BT-474 cell growth in a cell viability assay.
# HCC2157 = type: functional, cell-based, Homo sapiens; conditions: Homo sapiens, HCC2157;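 also: growth inhibition of the cancer cell line, read out as cell viability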
# Description: SANGER: Inhibition of human HCC2157 cell growth in a cell viability assay.
# MHH-NB-11 = type: functional, cell-based, Homo sapiens; conditions: Homo sapiens, MHH-NB-11;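 also: growth inhibition of human MHH-NB-11 cells, read out by a cell viability assay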
# Description: SANGER: Inhibition of human MHH-NB-11 cell growth in a cell viability assay.
# MN-60 = type: functional, cell-based, Homo sapiens; conditions: Homo sapiens, MN-60;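 also: growth inhibition of the MN-60 cell line, determined with a cell viability assay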
# Description: SANGER: Inhibition of human MN-60 cell growth in a cell viability assay.
# MSTO-211H = type: functional, cell-based, Homo sapiens; conditions: Homo sapiens, MSTO-211H
# Description: SANGER: Inhibition of human MSTO-211H cell growth in a cell viability assay.
# EW-11 = type: functional, cell-based, Homo sapiens; conditions: Homo sapiens, EW-11;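 also: growth inhibition of human EW-11 cells, measured with a cell viability assay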
# Description: SANGER: Inhibition of human EW-11 cell growth in a cell viability assay.
# MZ1-PC = type: functional, cell-based, Homo sapiens; conditions: Homo sapiens, MZ1-PC;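 also: cell viability assay measuring growth inhibition of human MZ1-PC cells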
# Description: SANGER: Inhibition of human MZ1-PC cell growth in a cell viability assay.
# VA-ES-BJ = type: functional, cell-based, Homo sapiens; conditions: Homo sapiens, VA-ES-BJ;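 also: growth inhibition of the VA-ES-BJ cell line, read out by a cell viability assay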
# Description: SANGER: Inhibition of human VA-ES-BJ cell growth in a cell viability assay.
# TE-5 = type: functional, cell-based, Homo sapiens; conditions: Homo sapiens, TE-5;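 also: inhibition of cell growth, read out by a cell viability assay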
# Description: SANGER: Inhibition of human TE-5 cell growth in a cell viability assay.
# 8-MG-BA = type: functional, cell-based, Homo sapiens; conditions: Homo sapiens, 8-MG-BA;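 also: growth inhibition of 8-MG-BA cells, read out with a cell viability assay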
# Description: SANGER: Inhibition of human 8-MG-BA cell growth in a cell viability assay.
# BB49-HNC = type: functional, cell-based, Homo sapiens; conditions: Homo sapiens, BB49-HNC;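 also: cell viability assay read-out, reported as inhibition of BB49-HNC cell growth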
# Description: SANGER: Inhibition of human BB49-HNC cell growth in a cell viability assay.
# MFH-ino = type: functional, cell-based, Homo sapiens; conditions: Homo sapiens, MFH-ino;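 also: growth inhibition of human MFH-ino cells, read out by a cell viability assay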
# Description: SANGER: Inhibition of human MFH-ino cell growth in a cell viability assay.
# SBC-1 = type: functional, cell-based, Homo sapiens; conditions: Homo sapiens, SBC-1;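 also: cell viability assay measuring growth inhibition of the SBC-1 cell line, IC50 being the concentration that halves growth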
# Description: SANGER: Inhibition of human SBC-1 cell growth in a cell viability assay.
# HOP-62 = type: functional, cell-based, Homo sapiens; conditions: Homo sapiens, HOP-62;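 also: cell growth inhibition determined with a viability assay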
# Description: SANGER: Inhibition of human HOP-62 cell growth in a cell viability assay.
# COLO-824 = type: functional, cell-based, Homo sapiens; conditions: Homo sapiens, COLO-824
# Description: SANGER: Inhibition of human COLO-824 cell growth in a cell viability assay.
# EW-24 = type: functional, cell-based, Homo sapiens; conditions: Homo sapiens, EW-24;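 also: human EW-24 cancer cell line, growth inhibition read out via a cell viability assay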
# Description: SANGER: Inhibition of human EW-24 cell growth in a cell viability assay.
# NCI-H1395 = type: functional, cell-based, Homo sapiens; conditions: Homo sapiens, NCI-H1395;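 also: cell viability assay read-out quantifying reduced proliferation of human NCI-H1395 cells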
# Description: SANGER: Inhibition of human NCI-H1395 cell growth in a cell viability assay.
# NH-12 = type: functional, cell-based, Homo sapiens; conditions: Homo sapiens, NH-12;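 also: growth inhibition of NH-12 cells, read out with a cell viability assay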
# Description: SANGER: Inhibition of human NH-12 cell growth in a cell viability assay.
# IST-MES1 = type: functional, cell-based, Homo sapiens; conditions: Homo sapiens, IST-MES1;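 also: growth inhibition of IST-MES1 cells, measured with a cell viability assay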
# Description: SANGER: Inhibition of human IST-MES1 cell growth in a cell viability assay.
# A704 = type: functional, cell-based, Homo sapiens; conditions: Homo sapiens, A704;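 also: growth inhibition of human A704 cells, read out with a cell viability assay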
# Description: SANGER: Inhibition of human A704 cell growth in a cell viability assay.
# SK-MEL-1 = type: functional, cell-based, Homo sapiens; conditions: Homo sapiens, SK-MEL-1;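 also: growth inhibition of human SK-MEL-1 cells, read out by a cell viability assay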
# Description: SANGER: Inhibition of human SK-MEL-1 cell growth in a cell viability assay.
# CTB-1 = type: functional, cell-based, Homo sapiens; conditions: Homo sapiens, CTB-1
# Description: SANGER: Inhibition of human CTB-1 cell growth in a cell viability assay.
# SK-N-FI = type: functional, cell-based, Homo sapiens; conditions: Homo sapiens, SK-N-FI;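 also: cell viability assay measuring growth inhibition of human SK-N-FI cells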
# Description: SANGER: Inhibition of human SK-N-FI cell growth in a cell viability assay.
# NCI-H2126 = type: functional, cell-based, Homo sapiens; conditions: Homo sapiens, NCI-H2126;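 also: growth inhibition of the cancer cell line, determined with a cell viability readout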
# Description: SANGER: Inhibition of human NCI-H2126 cell growth in a cell viability assay.
# SK-PN-DW = type: functional, cell-based, Homo sapiens; conditions: Homo sapiens, SK-PN-DW;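 also: growth inhibition measured with a viability assay on these cells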
# Description: SANGER: Inhibition of human SK-PN-DW cell growth in a cell viability assay.
# NOMO-1 = type: functional, cell-based, Homo sapiens; conditions: Homo sapiens, NOMO-1;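 also: growth inhibition of human NOMO-1 cells measured by a cell viability assay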
# Description: SANGER: Inhibition of human NOMO-1 cell growth in a cell viability assay.
# BB65-RCC = type: functional, cell-based, Homo sapiens; conditions: Homo sapiens, BB65-RCC;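 also: growth inhibition of the cell line, measured with a cell viability assay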
# Description: SANGER: Inhibition of human BB65-RCC cell growth in a cell viability assay.
# QIMR-WIL = type: functional, cell-based, Homo sapiens; conditions: Homo sapiens, QIMR-WIL;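 also: growth inhibition of QIMR-WIL cells, read out with a cell viability assay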
# Description: SANGER: Inhibition of human QIMR-WIL cell growth in a cell viability assay.
# U-87 MG = type: functional, cell-based, Homo sapiens, U-87MG ATCC; conditions: Homo sapiens, U-87 MG;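 also: growth inhibition of the cells measured with a viability assay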
# Description: SANGER: Inhibition of human U-87-MG cell growth in a cell viability assay.
# COR-L88 = type: functional, cell-based, Homo sapiens; conditions: Homo sapiens, COR-L88;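 also: growth inhibition of COR-L88 cells, read out with a cell viability assay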
# Description: SANGER: Inhibition of human COR-L88 cell growth in a cell viability assay.
# no-10 = type: functional, cell-based, Homo sapiens; conditions: Homo sapiens;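 also: growth inhibition of no-10 cells, read out with a cell viability assay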
# Description: SANGER: Inhibition of human no-10 cell growth in a cell viability assay.
# BE-13 = type: functional, cell-based, Homo sapiens; conditions: Homo sapiens, BE-13;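 also: growth inhibition of human BE-13 cells, measured with a cell viability assay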
# Description: SANGER: Inhibition of human BE-13 cell growth in a cell viability assay.
# MEG-01 = type: functional, cell-based, Homo sapiens; conditions: Homo sapiens, MEG-01;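 also: growth inhibition of MEG-01 cells, read out by a cell viability assay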
# Description: SANGER: Inhibition of human MEG-01 cell growth in a cell viability assay.
# TE-12 = type: functional, cell-based, Homo sapiens; conditions: Homo sapiens, TE-12;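 also: growth inhibition of TE-12 cells, read out by a cell viability assay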
# Description: SANGER: Inhibition of human TE-12 cell growth in a cell viability assay.
# MPP-89 = type: functional, cell-based, Homo sapiens; conditions: Homo sapiens, MPP-89;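 also: growth inhibition of human MPP-89 cells, read out with a cell viability assay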
# Description: SANGER: Inhibition of human MPP-89 cell growth in a cell viability assay.
# NCI-H1355 = type: functional, cell-based, Homo sapiens; conditions: Homo sapiens, NCI-H1355;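 also: growth inhibition of human NCI-H1355 cells, read out by a cell viability assay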
# Description: SANGER: Inhibition of human NCI-H1355 cell growth in a cell viability assay.
# DMS-114 = type: functional, cell-based, Homo sapiens; conditions: Homo sapiens, DMS-114
# KARPAS-299 = type: functional, cell-based, Homo sapiens; conditions: Homo sapiens, KARPAS-299
# Description: SANGER: Inhibition of human KARPAS-299 cell growth in a cell viability assay.
# C2BBe1 = type: functional, cell-based, Homo sapiens; conditions: Homo sapiens, C2BBe1;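 also: growth inhibition of C2BBe1 cells, read out through a viability assay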
# Description: SANGER: Inhibition of human C2BBe1 cell growth in a cell viability assay.
# LAMA-84 = type: functional, cell-based, Homo sapiens; conditions: Homo sapiens, LAMA-84;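 also: growth inhibition of LAMA-84 cells, read out with a cell viability assay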
# Description: SANGER: Inhibition of human LAMA-84 cell growth in a cell viability assay.
# KMOE-2 = type: functional, cell-based, Homo sapiens; conditions: Homo sapiens, KMOE-2;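 also: growth inhibition of human KMOE-2 cells, read out with a cell viability assay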
# Description: SANGER: Inhibition of human KMOE-2 cell growth in a cell viability assay.
# P30-OHK = type: functional, cell-based, Homo sapiens; conditions: Homo sapiens, P30-OHK;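 also: growth inhibition of the P30-OHK cell line, read out with a cell viability assay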
# Description: SANGER: Inhibition of human P30-OHK cell growth in a cell viability assay.
compound,measurement,setting,value
COc1cc(-c2nn([C@H]3CC[C@H](N4CCN(C(C)=O)CC4)CC3)c3ncnc(N)c23)ccc1NC(=O)c1cc2ccccc2n1C,IC50,RS4-11,> 5.12 µM
same,IC50,NCI-H747,2.86 µM
same,IC50,OS-RC-2,0.755 µM
same,IC50,KARPAS-45,> 5.12 µM
same,IC50,BT-474,> 5.12 µM
same,IC50,HCC2157,> 5.12 µM
same,IC50,MHH-NB-11,> 5.12 µM
same,IC50,MN-60,> 5.12 µM
same,IC50,MSTO-211H,> 5.12 µM
same,IC50,EW-11,> 5.12 µM
same,IC50,MZ1-PC,0.595 µM
same,IC50,VA-ES-BJ,> 5.12 µM
same,IC50,TE-5,> 5.12 µM
same,IC50,8-MG-BA,4.61 µM
same,IC50,BB49-HNC,> 5.12 µM
same,IC50,MFH-ino,1.16 µM
same,IC50,SBC-1,> 5.12 µM
same,IC50,HOP-62,0.475 µM
same,IC50,COLO-824,> 5.12 µM
same,IC50,EW-24,> 5.12 µM
same,IC50,NCI-H1395,> 5.12 µM
same,IC50,NH-12,> 5.12 µM
same,IC50,IST-MES1,1.4 µM
same,IC50,A704,1.15 µM
same,IC50,SK-MEL-1,> 5.12 µM
same,IC50,CTB-1,> 5.12 µM
same,IC50,SK-N-FI,> 5.12 µM
same,IC50,NCI-H2126,> 5.12 µM
same,IC50,SK-PN-DW,> 5.12 µM
same,IC50,NOMO-1,> 5.12 µM
same,IC50,BB65-RCC,5.06 µM
same,IC50,QIMR-WIL,2.87 µM
same,IC50,U-87 MG,> 5.12 µM
same,IC50,COR-L88,> 5.12 µM
same,IC50,no-10,2.18 µM
same,IC50,BE-13,> 5.12 µM
same,IC50,MEG-01,0.169 µM
same,IC50,TE-12,0.404 µM
same,IC50,MPP-89,> 5.12 µM
same,IC50,NCI-H1355,> 5.12 µM
same,IC50,DMS-114,> 5.12 µM
same,IC50,KARPAS-299,> 5.12 µM
same,IC50,C2BBe1,0.757 µM
same,IC50,LAMA-84,0.147 µM
same,IC50,KMOE-2,> 5.12 µM
same,IC50,P30-OHK,> 5.12 µM
OCCCNc1cc(-c2ccnc(Nc3cccc(Cl)c3)n2)ccn1,IC50,RS4-11,0.0696 µM
same,IC50,NCI-H747,0.0473 µM
same,IC50,OS-RC-2,0.0829 µM
same,IC50,KARPAS-45,0.104 µM
same,IC50,BT-474,> 0.256 µM
same,IC50,HCC2157,0.206 µM
same,IC50,MHH-NB-11,0.217 µM
same,IC50,MN-60,0.149 µM
same,IC50,MSTO-211H,> 0.256 µM
same,IC50,EW-11,> 0.256 µM
same,IC50,MZ1-PC,0.0427 µM
same,IC50,VA-ES-BJ,0.0416 µM
same,IC50,TE-5,0.0905 µM
same,IC50,8-MG-BA,0.056 µM
same,IC50,BB49-HNC,0.0963 µM
same,IC50,MFH-ino,0.0807 µM
same,IC50,SBC-1,> 0.256 µM
same,IC50,HOP-62,0.0412 µM
same,IC50,COLO-824,> 0.256 µM
same,IC50,EW-24,> 0.256 µM
same,IC50,NCI-H1395,> 0.256 µM
same,IC50,NH-12,> 0.256 µM
same,IC50,IST-MES1,0.135 µM
same,IC50,A704,> 0.256 µM
same,IC50,SK-MEL-1,> 0.256 µM
same,IC50,CTB-1,0.153 µM
same,IC50,SK-N-FI,> 0.256 µM
same,IC50,NCI-H2126,> 0.256 µM
same,IC50,SK-PN-DW,0.0902 µM
same,IC50,NOMO-1,> 0.256 µM
same,IC50,BB65-RCC,0.0601 µM
same,IC50,QIMR-WIL,0.0488 µM
same,IC50,U-87 MG,> 0.256 µM
same,IC50,COR-L88,> 0.256 µM
same,IC50,no-10,0.0148 µM
same,IC50,BE-13,0.0769 µM
same,IC50,MEG-01,0.126 µM
same,IC50,TE-12,0.0485 µM
same,IC50,MPP-89,0.0904 µM
same,IC50,NCI-H1355,0.0249 µM
same,IC50,DMS-114,> 0.256 µM
same,IC50,KARPAS-299,0.0292 µM
same,IC50,C2BBe1,0.154 µM
same,IC50,LAMA-84,0.203 µM
same,IC50,KMOE-2,> 0.256 µM
same,IC50,P30-OHK,> 0.256 µM
CCN(CC)CCNC(=O)c1c(C)[nH]c(/C=C2\C(=O)Nc3ccc(F)cc32)c1C [SUNITINIB],IC50,NCI-H747,> 8 µM
same,IC50,OS-RC-2,4.87 µM
same,IC50,KARPAS-45,2.49 µM
same,IC50,BT-474,> 8 µM
same,IC50,HCC2157,> 8 µM
same,IC50,MHH-NB-11,> 8 µM
same,IC50,MN-60,7.54 µM
same,IC50,MSTO-211H,> 8 µM
same,IC50,EW-11,> 8 µM
same,IC50,MZ1-PC,7.3 µM
same,IC50,VA-ES-BJ,> 8 µM
same,IC50,TE-5,> 8 µM
same,IC50,8-MG-BA,6.52 µM
same,IC50,BB49-HNC,3.71 µM
same,IC50,MFH-ino,> 8 µM
same,IC50,SBC-1,> 8 µM
same,IC50,HOP-62,4.34 µM
same,IC50,COLO-824,> 8 µM
same,IC50,EW-24,> 8 µM
same,IC50,NCI-H1395,> 8 µM
same,IC50,NH-12,> 8 µM
same,IC50,IST-MES1,> 8 µM
same,IC50,A704,> 8 µM
same,IC50,SK-MEL-1,> 8 µM
same,IC50,CTB-1,> 8 µM
same,IC50,SK-N-FI,> 8 µM
same,IC50,NCI-H2126,> 8 µM
same,IC50,SK-PN-DW,> 8 µM
same,IC50,NOMO-1,4.34 µM
same,IC50,BB65-RCC,> 8 µM
same,IC50,QIMR-WIL,3.63 µM
same,IC50,U-87 MG,> 8 µM
same,IC50,COR-L88,> 8 µM
same,IC50,no-10,> 8 µM
same,IC50,BE-13,3.23 µM
same,IC50,MEG-01,1.84 µM
same,IC50,TE-12,0.805 µM
same,IC50,MPP-89,> 8 µM
same,IC50,NCI-H1355,7.46 µM
same,IC50,DMS-114,> 8 µM
same,IC50,KARPAS-299,2.11 µM
same,IC50,C2BBe1,> 8 µM
same,IC50,LAMA-84,2.7 µM
same,IC50,KMOE-2,> 8 µM
same,IC50,P30-OHK,> 8 µM
